In PubChem BioAssay AID504857 (Southern Research Specialized Biocontainment Screening …, 2011):
Calls of active or inactive are those of the source. The rule behind the calls is not given here.

Key:
[1] = M. tuberculosis growth inhibition, dose response, H37Rv, 7H9 media, purified and synthesized compounds, set 4 (AID 504857); conditions: Mycobacterium tuberculosis H37Rv growth in 7H9 media; at 100 µM (top of the series)
[2] = system: Mycobacterium tuberculosis H37Rv growth in 7H9 media; experiment: as above; conditions: for IC50: measured here: M. tuberculosis growth IC50

Compound	growth inhibition [1]	IC90 [2]	IC50 [2]
CCOC(=O)CSc1nc(C)c(C)c(=O)[nH]1	7.45% (inactive)		
Cc1cccc(-c2oc3ccc(-c4ccc5c(c4)OCO5)cc3c2C#Cc2cncn2C)c1		3130 nM	2600 nM
CC[N+](C)(CC)CCCCOc1ccc2c(c1)C(=O)c1cc(OCCCC[N+](C)(CC)CC)ccc1-2		3300 nM	2470 nM
CN(C)C(=O)CSc1nc2ccccc2c(=O)[nH]1	10.3% (inactive)		
Cc1nc(SCC(=O)NC2CCCC2)[nH]c(=O)c1C		10900 nM	6250 nM
Cc1nc(SCc2ccccc2Cl)[nH]c(=O)c1C	-1.2% (inactive)		
CNC(=O)CSc1nc2ccccc2c(=O)[nH]1		89800 nM	54800 nM
CN1CCC(NC(=O)CSc2nc3ccccc3c(=O)[nH]2)CC1	4.15% (inactive)		
CCOC1OC(=O)C(Cl)=C1Nc1ccccc1C (stereo not drawn)		9910 nM	3780 nM
CC(Sc1nc2ccccc2c(=O)[nH]1)C(=O)NC1CCCCC1 (stereo not drawn)	3.48% (inactive)		
Cc1cnc(SCC(=O)NC2CCCCC2)[nH]c1=O	4.36% (inactive)		
O=C(CSc1ccccn1)NC1CCCCC1	5.02% (inactive)		
c1ccc(/N=C2\N=C(Nc3ccccn3)c3ccccc32)nc1		1360 nM	1030 nM
Cc1nc(SCC(=O)NCCC(C)C)[nH]c(=O)c1C		9970 nM	5780 nM
CCSc1nc2ccccc2c(=O)[nH]1	2.57% (inactive)		
Cn1c(SCC(=O)NC2CCCCC2)nc2ccccc2c1=O	5.15% (inactive)		
CC(C)CCNC(=O)CSc1nc2ccccc2c(=O)[nH]1		20 nM	< 10 nM
CC1CCN(C(=O)CSc2nc3ccccc3c(=O)[nH]2)CC1	2.61% (inactive)		
CC(C)NC(=O)CSc1nc2ccccc2c(=O)[nH]1		15200 nM	10300 nM
Cc1cc(Br)ccc1NC(=O)c1cnc(N2CCN(c3ccccn3)CC2)c2ccccc12		35000 nM	1030 nM

Compound	growth inhibition [1]	IC90 [2]	IC50 [2]
CN(C(=O)CSc1nc2ccccc2c(=O)[nH]1)C1CCCCC1	4.85% (inactive)		
Cc1nc(SCC(N)=O)[nH]c(=O)c1C	3.13% (inactive)		
CC(C)CCNC(=O)CSc1nc2c(c(=O)[nH]1)CCC2		1850 nM	1140 nM
Cc1ccc(NC(=O)COC(=O)CCc2c[nH]c3ccccc23)cc1[N+](=O)[O-]		4680 nM	2550 nM
Nc1cc(=O)[nH]c(SCC(=O)NC2CCCCC2)n1	-0.79% (inactive)		
COC(=O)C(C)Oc1ccc(Cc2ncc(C(F)(F)F)cc2Cl)cc1 (stereo not drawn)		7110 nM	4400 nM
Cc1cc(=O)[nH]c(=S)[nH]1	-3.77% (inactive)		
O=C(CSc1nc2c(c(=O)[nH]1)CCCC2)NC1CCCCC1		< 10 nM	< 10 nM
O=C(CSc1nc2c(c(=O)[nH]1)CCC2)NC1CCCCC1		< 10 nM	< 10 nM
O=C(CSc1nc2ccccc2c(=O)[nH]1)NC1CCCC1		710 nM	240 nM
Cc1[nH]c(=S)[nH]c(=O)c1C	3.68% (inactive)		
CCOc1ccc(-c2cc(C)[n+](CCc3ccc(OC)c(OC)c3)c(-c3ccc(OCC)cc3)c2)cc1		1110 nM	770 nM
Cc1cccc(/C=C/C(=O)c2ccc([N+](=O)[O-])o2)c1		1120 nM	670 nM
CC1CCN(C(=O)C2CCN(c3nnc(-n4cccc4)s3)CC2)CC1		4870 nM	2790 nM
O=C(CSc1nc2ccccc2c(=O)[nH]1)NC1CCCCC1		400 nM	250 nM
Cc1[nH]c2ccccc2c1C(=O)COC(=O)c1ccc([N+](=O)[O-])s1		2930 nM	1690 nM
Cc1ccc(C(=O)N/N=C(/CC(=O)c2cccs2)C(F)(F)F)cc1		2800 nM	1230 nM
O=c1[nH]c(SCc2ccccc2Cl)nc2c1CCCC2	9.36% (inactive)		
Cc1c[nH]c(=S)[nH]c1=O	2.29% (inactive)		
COC(=O)C(Nc1nc(SCC(=O)NC2CCCCC2)nc2ccccc12)c1ccccc1 (stereo not drawn)	0.63% (inactive)		

Compound	growth inhibition [1]	IC90 [2]	IC50 [2]
COc1ccc(NC(=O)CSc2nc3ccccc3c(=O)[nH]2)cc1	10.6% (inactive)		
Cc1cc(C)n2nc(N)c(N=Nc3ccccc3)c2n1		6310 nM	4720 nM
COc1cccc(NC(=O)CSc2nc3ccccc3c(=O)[nH]2)c1	7.54% (inactive)		
CCC(Sc1nc2c(c(=O)[nH]1)CCC2)C(=O)Nc1cccc(OC)c1 (stereo not drawn)	-2.13% (inactive)		
O=c1[nH]c(=S)[nH]c2ccccc12	-2.47% (inactive)		
CCC(Sc1nc2ccccc2c(=O)[nH]1)C(=O)Nc1cccc(OC)c1 (stereo not drawn)	18.9% (inactive)		
Nc1c(C(=O)NC2CCCCC2)nsc1C(=O)OCC(=O)NC1CCCCC1			4420 nM
Cc1nc(SCC(=O)N(C)c2ccccc2)[nH]c(=O)c1C	-2.18% (inactive)		
NC(=O)CSc1nc2ccccc2c(=O)[nH]1	5.87% (inactive)		
O=C(CSc1nc2ccccc2c(=O)[nH]1)NCc1ccc(Cl)cc1		1270 nM	760 nM
COC(=O)c1ccc(CNc2c(N3CCCC3)c(=O)c2=O)cc1	1.55% (inactive)		
O=C(CSc1nccc(=O)[nH]1)NC1CCCCC1	6.38% (inactive)		
Cc1ccc(NC(=O)CSc2nc3ccccc3c(=O)[nH]2)cc1Cl	0.04% (inactive)		
O=C(CSc1nc2ccccc2c(=O)[nH]1)N1CCOCC1	6.76% (inactive)		
Cc1cc(=O)[nH]c(SCC(=O)NC2CCCCC2)n1	-5.77% (inactive)		
O=C(CSc1ncccn1)NC1CCCCC1	-3.06% (inactive)		
CCC(Sc1nc2ccccc2c(=O)[nH]1)C(=O)NC1CCCCC1 (stereo not drawn)	0.65% (inactive)		
CCSc1nc(C)c(C)c(=O)[nH]1	1.25% (inactive)		
COc1cccc(NC(=O)CSc2nc3c(c(=O)[nH]2)CCC3)c1	-2.55% (inactive)		
